For one assay, the system named is Survivin mRNA. Briefly: LifeGrid microarray of Survivin transcripts in neutrophils. Format: cell-based, human. Conditions: between 2 and 6 h following addition of GM-CSF. Here is the method:
Primary human neutrophils are isolated and purified from peripheral blood of normal healthy individuals using standard techniques. Neutrophils are resuspended in serum containing culture medium together with GM-CSF (50 U) at a concentration of 2×10^6/ml, and cultured for 0 h (control), 2 h, 4 h and 6 h at 37° C. Total RNA is then prepared from both groups using acid phenol/guanidine isothiocyanate extraction (RNAzol B; Biogenesis), or RNeasy RNA preparation kits (Qiagen). Any contaminating genomic DNA is removed by DNase treatment (DNase I, Gibco-BRL). […]
This example describes the use of a STORM Phosphoimager to quantitatively image positive signals across the filter arrays. […]
The captured image file is then analysed using software such as Array Vision (Imaging Research Inc.; See FIG. 5). […] This program contains facilities for spot detection and quantification, and background detection and quantification. […] As the data is imported to the database, a Normalisation factor is calculated and the sDENs values modified accordingly. […] A normalization factor may be derived from Linear Regression calculated by reference to housekeeping genes. Alternatively, the Global Mean is calculated as the average of the sDens values across all of the arrays to be compared and a normalisation factor is then derived by division of the overall spot density with the Global Mean value. […]

The next assay deals with Neutrophils. Briefly: Neutrophil apoptosis by oligonucleosomal DNA fragments after 2-MOE oligonucleotides. The settings on record: cytokine alone. Format: cell-based, human. On the procedure:
Neutrophil apoptosis is assessed by oligonucleosomal DNA fragmentation (Dibbert et al.(1999) Proc. Natl. Acad. Sci. USA 96, 13330-13335; Hebestreit et al. (1998), J. Exp. Med. 187, 415-425) according to Nicoletti et al. ((1991) J. Immunol. Meth. 139, 271-279). Briefly, cells are resuspended in hypotonic fluorochrome solution containing 50 μg/ml propidium iodide (Sigma Buchs, Switzerland), 0.1% sodium citrate (Sigma) and 0.1% (vol/vol) Triton-X 100 (Sigma), incubated at 4° C. for 10 h, and analyzed by flow cytometry (FACScan, Becton Dickinson, Heidelberg, Germany).
The 20-mer first generation antisense oligonucleotide 4003 targeting the survivin mRNA has been described above. The second generation 2′-O-methoxy-ethoxy (2′-MOE) gapmer version of 4003 (as) and its 3-base mismatch sequence control (ms) are synthesized using an Applied Biosystems 394B automated DNA synthesizer as described (De Mesaeker et al. (1995) Acc. Chem. Res. 28, 366-374). Sequences are as follows: antisense survivin, cscscsasgsCsCsTsTsCsCsAsGsCsTscscststsg; mismatch survivin, cscstsasgsCsCsTsTsCsCsAsGsGsTscscstsasg. Small letters refer to 2′-O-(2-methoxy)-ethyl-modified nucleotides, capital letters to DNA, and “s” refers to phosphorothioate linkages. Cells isolated and cultured as described above are treated with survivin antisense oligonucleotides (as) or survivin mismatch control oligonucleotides (ms) at the indicated concentrations. In the experiments in which GM-CSF (50 ng/ml; kind gift of T. Hartung, University of Konstanz, Konstanz, Germany) or G-CSF (25 ng/ml; PeproTech, BioConcept, Allschwil, Switzerland) are added, the oligonucleotides are given 2 h before addition of cytokines.
Values are means ±S.E.M. of four independent experiments. *, p<0.05; **, p<0.01; ***, p<0.001.

Turning to “Granulocyte macrophage colony-stimulating factor [GM-CSF]”, the “Expression of Survivin (microarray fold change)” value with Survivin mRNA was “up-regulated”. Further, the “DNA-fragmentation of neutrophils with cytokine” value with Neutrophils was “prevent DNA-fragmentation”.

Values taken from US20060160095A1, “Survivin” (EiRx Therapeutics Limited, priority 2002, published 2006).
